The results in this text go back to patent publication US20260166162A1, “CARBON CHAIN SUBSTANCE FOR REGULATING TRANSMEMBRANE TRANSPORT AND FLUIDITY OF CELL MEMBRANES, AND PREPARATION AND USE THEREOF” (priority 2022, published 2026).

One assay has as its system Epithelial cells. Briefly: Interaction of GFP-labelled complexes with cell membrane of epithelial cells (Example II-52, Table II-30). To be noted: GFP-labelled complex, epithelial cells pretreated 4 hours, n=3. Type of assay: cell-based. As to the method: The fatty acids were combined with water-soluble small molecules to form a complex, which were labeled with GFP fluorescence to detect cell membrane fluorescence. […] After the cells were stably adhered, the water-soluble fatty acid complexes in the following table were added to the cell culture medium. […] The medium with the drug was pipetted and replaced with normal DMEM medium. […] The green fluorescence intensity was analyzed by imageJ (see Table II-30, n=3).

The next assay has as its system 293T cells. Briefly: Cellular phagocytosis of DiD-loaded lipid vesicles (nano-drugs) by 293T cells (Example II-51, Table II-29). Type of assay: cell-based. The conditions noted are these: 293T cells pretreated 4 h, DiD lipid vesicles 2 h, n=3, untreated control 226.46 ± 1.26.

`Nc1ncnc2c1ncn2[C@@H]1O[C@H](COP(=O)(O)O)[C@@H](O)[C@H]1O.O=C(O)/C=C/C(=O)O` [Adenosine monophosphate-fumaric acid]: the Mean fluorescence intensity amounted to 125.1 ± 7.6 in the assay with Epithelial cells (0 Hours after medium replaced); 120.5 ± 7.4 with Epithelial cells (2 Hours after medium replaced); 113.3 ± 4.6 with Epithelial cells (4 Hours after medium replaced); 50.0 ± 2.4 with Epithelial cells (8 Hours after medium replaced); 35.8 ± 4.6 with Epithelial cells (12 Hours after medium replaced); 31.3 ± 4.4 with Epithelial cells (24 Hours after medium replaced).

On to `CCCCCCC=CCCCCCCCC(=O)OCC1OC(O)C(O)C(O)C1O` (stereo not drawn) [Glucose-c-9-hexadecenoic acid], for which the Mean fluorescence intensity with Epithelial cells (0 Hours after medium replaced) was 126.3 ± 2.5; in the assay with Epithelial cells (2 Hours after medium replaced), 113.5 ± 8.2; with Epithelial cells (4 Hours after medium replaced), 105.5 ± 6.8; with Epithelial cells (8 Hours after medium replaced) it was 87.5 ± 6.8; in the assay on Epithelial cells (12 Hours after medium replaced), 64.3 ± 5.1; in the assay on Epithelial cells (24 Hours after medium replaced), 43.5 ± 5.0.

With `CCCCCCCCC/C=C/C(=O)OCC1OC(O)C(O)C(O)C1O` (stereo not drawn) [Glucose-t-2-dodecenoic acid], the Mean fluorescence intensity was 129.3 ± 0.6 in the assay on Epithelial cells (0 Hours after medium replaced); 122.0 ± 6.6 with Epithelial cells (2 Hours after medium replaced); 109.6 ± 5.6 with Epithelial cells (4 Hours after medium replaced); 63.4 ± 6.0 in the assay with Epithelial cells (8 Hours after medium replaced); 45.7 ± 4.6 with Epithelial cells (12 Hours after medium replaced); 38.5 ± 8.2 with Epithelial cells (24 Hours after medium replaced).

On to `CCCCCCCCCCCCCCCCCCCCCCCC(=O)OC(C)C(N)C(=O)O` (stereo not drawn) [Threonine-C24], for which the Fluorescence intensity came to 39.09 ± 7.89 in the assay on 293T cells (2 nM); 38.29 ± 5.26 in the assay on 293T cells (5 nM); 22.90 ± 1.22 with 293T cells (10 nM); 12.84 ± 2.22 in the assay on 293T cells (50 nM); 14.81 ± 1.33 with 293T cells (100 nM); 435.55 ± 15.26 in the assay with 293T cells (1 uM). Also, the Fluorescence intensity was found to be 416.78 ± 12.33 in the assay with 293T cells (10 uM), 46.51 ± 5.21 in the assay with 293T cells (50 uM) and 30.64 ± 5.55 with 293T cells (100 uM).

Take `CCCCCC/C=C\CCCCCCCC(=O)OC(C)C(N)C(=O)O` (stereo not drawn) [Threonine-cis-9-hexadecanoic acid]: the Fluorescence intensity in the assay on 293T cells (2 nM) is given as 142.94; in the assay on 293T cells (5 nM) it was 67.71 ± 5.67; in the assay with 293T cells (10 nM), 64.00 ± 4.06; in the assay on 293T cells (50 nM), 74.71 ± 5.36; with 293T cells (100 nM), 56.71 ± 6.74; in the assay with 293T cells (1 uM), 153.25 ± 13.25. The figures for the Fluorescence intensity with 293T cells (10 uM), in the assay with 293T cells (50 uM) and with 293T cells (100 uM) were 126.64 ± 11.02, 37.23 ± 2.35 and 61.12 ± 5.21, respectively.

For the compound `CCCCCCCC/C=C\CCCCCCCC(=O)OCCOCC(OCCO)C1OCC(OCCO)C1OCCO` (stereo not drawn) [Tween-80], the Fluorescence intensity was found to be 45.04 in the assay on 293T cells (2 nM); 32.41 in the assay with 293T cells (5 nM); 21.85 in the assay with 293T cells (10 nM); 17.28 with 293T cells (50 nM); 11.89 in the assay with 293T cells (100 nM); 152.11 with 293T cells (1 uM). Besides, the Fluorescence intensity came to 103.58 in the assay on 293T cells (10 uM), 18.48 with 293T cells (50 uM) and 13.34 ± 3.24 with 293T cells (100 uM).

`O=C(O)CCCCCCCCCC(=O)OCC(O)C1OC(=O)C(O)=C1O` (stereo not drawn) [VC-undecanedioic acid]: the Fluorescence intensity in the assay on 293T cells (2 nM) turned out to be 121.02; in the assay on 293T cells (5 nM), 92.26; with 293T cells (10 nM), 78.76 ± 7.89; in the assay on 293T cells (50 nM), 87.57 ± 5.57; in the assay with 293T cells (100 nM), 96.31 ± 6.21; in the assay on 293T cells (1 uM), 199.22 ± 19.26. Moreover, the Fluorescence intensity in the assay on 293T cells (10 uM) stood at 217.49 ± 14.22; with 293T cells (50 uM), 106.96 ± 5.64; in the assay with 293T cells (100 uM), 110.44 ± 9.87.
